# In patent publication US6693123B2 (University of Pittsburgh, priority 1995, dated 2004):
# Counter-ions that a name gives are not always drawn. Like-named read-outs stand apart in the source and are kept apart here.
# Biological target: T1, Rat brain protein farnesyltransferase (Rattus norvegicus, UniProt Q02293+Q04631)
# T1 construct: The enzyme is purified according to Reiss, Y., et al., Cell, 62: 81-88 (1990), utilizing steps one through three; from tissue; host or cells: rat brain
# Assay: In vitro inhibition of protein farnesyltransferase, Amersham scintillation proximity assay with biotin-K Ras B fragment
# Assay type: biochemical
# Conditions: for inhibition at 1 µM: read-out: % inhibition at 1 × 10^−6 M
# [1] = Inhibition of farnesyltransferase, compound at 1 × 10^−6 M (Table 2)
# [2] = read-out: % inhibition at 0.01 μM
# [3] = read-out: % inhibition at 1 × 10^−7 M
# [4] = Inhibition of farnesyltransferase, compound at 1 × 10^−7 M (Table 3), read-out: % inhibition at 1 × 10^−7 M
structure (smiles),measurement,setting,value
COc1cccc(-c2cc(COc3cccnc3)ccc2C(=O)N[C@@H](CCSC)C(=O)O)c1 [Example 208],% inhibition at 1 × 10^−6 M,[1],98%
"CSCC[C@H](NC(=O)c1ccc(/C=C(/C(=O)OC(C)(C)C)c2cccnc2)cc1-c1ccccc1C)C(=O)O [Example 1077, N-[4-(E-2-t-Butoxycarbonyl-2-pyrid-3-ylethenyl)-2-(2-methylphenyl)benzoyl]methionine, Lithium Salt]",inhibition at 0.01 µM,[2],93%
"CSCC[C@H](NC(=O)c1ccc(C(=O)N(Cc2ccccc2)c2cccnc2)cc1-c1ccccc1C)C(=O)O [Example 451, N-[4-(N-3-Pyridyl-N-benzyl)carbonyl-2-(2-methylphenyl)benzoyl]methionine]",inhibition at 1 µM,,85%
"CSCC[C@H](NC(=O)c1ccc(CN(Cc2cccnc2)c2cc(F)cc(F)c2)cc1-c1ccccc1C)C(=O)O [Example 1287, N-[4-N-(N-3,5-Difluorophenyl-N-(3-pyridylmethyl)aminomethyl)-2-(2-methylphenyl)benzoyl]methionine Lithium Salt]",inhibition at 0.01 µM,[2],95%
"CSCC[C@H](NC(=O)c1ccc(/C=C(\C(=O)OC(C)(C)C)c2cccnc2)cc1-c1ccccc1C)C(=O)O [Example 1078, N-[4-(Z-2-t-Butoxycarbonyl-2-pyrid-3-ylethenyl)-2-(2-methylphenyl)benzoyl]methionine, Lithium Salt]",inhibition at 0.1 µM,read-out: % inhibition at 0.1 μM,86%
"COC(=O)[C@H](CCSC)NC(=O)c1ccc(CCc2cccnc2)cc1-c1ccccc1 [Example 212, {4-[2-(Pyrid-3-yl)ethyl]-2-phenylbenzoyl}methionine Methyl Ester]",inhibition at 1 µM,[1],12%
"COc1ccccc1-c1cc(COc2cccnc2)ccc1C(=O)N[C@@H](CCSC)C(=O)O [Example 207, [4-(3-Pyridyloxymethyl)-2-(2-methoxyphenyl)benzoyl]methionine]",inhibition at 1 µM,[1],98%
"CSCC[C@H](NC(=O)c1ccc(C=Cc2ccc(Oc3ccccc3)nc2)cc1-c1ccccc1C)C(=O)O [Example 800, N-[4-(2-(6-Phenyloxypyrid-3-yl)ethen-1-yl)-2-(2-methylphenyl)benzoyl]methionine Lithium Salt]",inhibition at 0.1 µM,[3],74%
"CSCC[C@H](NC(=O)c1ccc(CCc2cccnc2)cc1-c1ccccc1)C(=O)O [Example 213, {4-[2-(Pyrid-3-yl)ethyl]-2-phenylbenzoyl}methionine Sodium Salt]",inhibition at 1 µM,[1],98%
"CSCC[C@H](NC(=O)c1ccc(/C=C/c2cnccc2C(O)c2ccccc2)cc1-c1ccccc1C)C(=O)O (stereo partly drawn) [Example 484, N-[4-(2-(4-α-Hydroxybenzyl)pyrid-3-ylethen-1-yl)-2-(2-methylphenyl)benzoyl]methionine Lithium Salt]",inhibition at 0.1 µM,[4],97%
"CSCC[C@H](NC(=O)c1ccc(CCc2ccc(Oc3ccccc3)nc2)cc1-c1ccccc1C)C(=O)O [Example 801, N-[4-(2-(6-Phenyloxypyrid-3-yl)ethyl)-2-(2-methylphenyl)benzoy]methionine Lithium Salt]",inhibition at 0.1 µM,[3],87%
"CSCC[C@H](NC(=O)c1ccc(/C=C/c2cccnc2)cc1-c1ccccc1C)C(N)=O [Example 796, N-[4-(2-Pyrid-3-ylethen-1-yl)-2-(2-methylphenyl)benzoyl]methioninamide]",inhibition at 1 µM,[1],35%
"CSCC[C@H](NC(=O)c1ccc(CCc2c[nH]cn2)cc1-c1ccccc1)C(=O)O [Example 329, {4-[2-(1H-Imidazol-4-yl)ethyl]-2-phenylbenzoyl}methionine]",inhibition at 1 µM,[1],98%
"CCCC[C@H](NC(=O)c1ccc(COc2cccnc2)cc1-c1ccccc1)C(=O)O [Example 244, N-[4-(3-Pyridyloxymethyl)-2-phenylbenzoyl]norleucine]",inhibition at 1 µM,[1],21%
"NC(=O)CC[C@H](NC(=O)c1ccc(COc2cccnc2)cc1-c1ccccc1)C(=O)O [Example 316, (S)-2-N-[4-(3-Pyridyloxymethyl)-2-phenylbenzoyl]amino-4-(aminocarbonyl)butanoic Acid]",inhibition at 1 µM,[1],63%
"CC[C@H](NC(=O)c1ccc(COc2cccnc2)cc1-c1ccccc1)C(=O)O [Example 760, (2S)-2-N-[4-(3-Pyridyloxymethyl)-2-phenylbenzoyl]aminobutanoic Acid]",inhibition at 0.01 µM,"Inhibition of farnesyltransferase, compound at 1 × 10^−8 M (Table 4), read-out: % inhibition at 1 × 10^−8 M",95%
"CSCC[C@H](NC(=O)c1ccc(CN(Cc2cc(F)cc(F)c2)c2cccnc2)cc1-c1ccccc1C)C(=O)O [Example 1360, N-[4-N-3,5-Difluorobenzyl-N-(3-pyridyl)aminomethyl-2-(2-methylphenyl)benzoyl]methionine Lithium Salt]",inhibition at 0.01 µM,[2],98%
"CSCC[C@H](NC(=O)c1ccc(C=Cc2cccnc2)cc1-c1ccccc1)C(=O)O [Example 211, {4-[2-(Pyrid-3-yl)ethenyl]-2-phenylbenzoyl}methionine Sodium Salt]",inhibition at 1 µM,[1],98%
"CSCC[C@H](NC(=O)c1ccc(NC(=O)c2nccn2C)cc1-c1ccccc1)C(=O)O [Example 186, [4-(1H-1-Methylimidazol-2-ylcarboxyamino)-2-phenylbenzoyl]methionine]",inhibition at 1 µM,[1],86%
"CSCC[C@H](NC(=O)Nc1ccc(COc2cccnc2)cc1-c1ccccc1)C(=O)O [Example 348, [4-(3-Pyridyloxymethyl)-2-(phenyl)phenylaminocarbonyl]methionine]",inhibition at 1 µM,,66%
"CSCC[C@H](NC(=O)c1ccc(/C=C/c2cncc3ccccc23)cc1-c1ccccc1C)C(=O)O (stereo in doubt) [Example 491, N-[4-(2-Isoquinolin-4-ylethen-1-yl)-2-(2-methylphenyl)benzoyl]methionine Lithium Salt]",inhibition at 0.1 µM,[3],94%
"O=C(N[C@@H](CCO)C(=O)O)c1ccc(NCc2cccnc2)cc1-c1ccccc1 [Example 191, Lithium 4-(3-Pyridylmethylamino)-2-phenylbenzoyl-L-homoserinate]",inhibition at 1 µM,,28%
"CSCC[C@H](NC(=O)c1ccc(/C=C/c2cnccc2C2(O)CCCCC2)cc1-c1ccccc1C)C(=O)O [Example 482, N-[4-(2-(4-Cyclohexan-1-ol-1-yl)-pyrid-3-ylethen-1-yl)-2-(2-methylphenyl)benzoyl]methionine Lithium Salt]",inhibition at 0.1 µM,[4],96%
"CSCC[C@H](NC(=O)c1ccc(/C=C/c2cnccc2C(O)C2CCCCC2)cc1-c1ccccc1C)C(=O)O (stereo partly shown) [Example 486, N-[4-(2-(4-(1-Cyclohexyl)hydroxmethyl)pyrid-3-ylethen-1-yl)-2-(2-methylphenyl)benzoyl]methionine Lithium Salt]",inhibition at 0.1 µM,[4],97%
"CSCC[C@H](NC(=O)c1ccc(/C=C(\C#N)c2cccnc2)cc1-c1ccccc1C)C(=O)O [Example 1076, N-[4-(Z-2-Cyano-2-pyrid-3-ylethenyl)-2-(2-methylphenyl)benzoyl]methionine, Lithium Salt]",inhibition at 0.01 µM,[2],69%
"CSCC[C@H](NC(=O)c1ccc(CNCc2c[nH]cn2)cc1-c1ccccc1)C(=O)O [Example 225, [4-(1H-Imidazol-4-ylmethylaminomethyl)-2-phenylbenzoyl]methionine]",inhibition at 1 µM,[1],93%
"CSCC[C@H](NC(=O)c1ccc(CNc2ccncc2)cc1-c1ccccc1)C(=O)O [Example 161, [4-(4-Pyridylaminomethyl)-2-phenylbenzoyl]methionine]",inhibition at 1 µM,[1],54%
"COC(=O)[C@H](CCSC)NC(=O)c1ccc(NC(=O)c2cccnc2)cc1-c1ccccc1C [Example 300, [4-(3-Pyridylcarbonylamino)-2-(2-methylphenyl)benzoyl]methionine Methyl Ester]",inhibition at 1 µM,[1],22%
